Type in all cases: cell-based
In experiment [1] the test system is U373V. Nature of the experiment: MTT assay for 7-day toxicity, U373V glioma cells (vector control, MGMT-). The note with it: 7 day MTT assay, glioma line U373V. On the procedure: (§1) The cell culture techniques were carried out in a Class II microbiological safety cabinet which was swabbed with 70% IMS in distilled water before each use. Glioma cells were routinely cultured in Costar tissue culture flasks in RPMI 1640 liquid medium (containing 0.3 g/L L-glutamine and 2 g/L sodium bicarbonate) supplemented with 10% heat inactivated FBS (55-59° C.) for 1 hour to denature complement proteins which would otherwise evoke a cellular immune response resulting in cell lysis, 1% non-essential amino acids, 50 μg/mL gentamicin and 400 μg/mL G418 (vector selection reagent). Colorectal and melanoma cells were maintained in RPMI 1640 supplemented with 10% FBS. MRC-5 cells were cultured in EMEM+10% FBS, 1% pen/strep, 1% non-essential amino acids, 1% HEPES (1M) and 1% sodium bicarbonate.
(§2) Cells were grown at 37° C. in a humidified incubator in an atmosphere comprising 95% air/5% CO2. Cells were sub-cultured when growth exceeded approximately 80% confluence, normally twice weekly. The medium was aspirated from the flask and approximately 0.8 mL trypsin-EDTA 1× solution added. The cells were re-incubated at 37° C. until they had visibly detached from the flask. The cells were re-suspended in 5 mL medium and 0.5-1 mL was transferred to a new flask (25 cm^2) with 7 mL culture medium. The cells were further incubated at 37° C. To minimize phenotypic drift, cells were disposed of once they had been subcultured 30 times. New batches of cells were thawed rapidly in 37° C. water bath once taken from liquid nitrogen storage and re-suspended in 10 mL of culture medium in a 25 cm^2 flask. Cells were passaged twice to allow normal growth to resume prior to use in experiments.
(§3) Most test compounds, including temozolomide, were prepared as 100 mM stock solutions in DMSO and stored at −20° C. for not more than 6 months.
(§4) MTT Assay for 7-Day Toxicity Assay
(§5) This assay was first described in Mosmann, T., 1983, “Rapid colorimetric assay for cellular growth and survival: Application to proliferation and cytotoxicity assays”, Journal of Immunological Methods, Vol. 65, Nos. 1-2, pp. 55-63.
(§6) Glioma cell lines, SNB19 and U373, both stably transfected with MGMT (i.e., SNB19M and U373M) or their respective vector controls (i.e., SNB19V and U373V); colorectal carcinoma cell lines, HCT116, HT29, and DLD1; melanoma cell line, SKMEL-28; breast cell line, MCF-7; and normal human fetal lung fibroblast cell line, MRC-5; were used at 60-80% confluence, during the logarithmic phase of growth.
(§7) Following harvesting with trypsin/EDTA, cells in suspension were gently syringed through a 23 gauge needle to obtain a near-single cell suspension. Cells were then seeded into 96-well plates at the desired density in 180 μL culture medium if only one test compound was to be added, or in 160 μL if two test compounds were to be added in combination. Cells were allowed to attach overnight by incubation at 37° C. in 95% air/5% CO2. For the 7 day assay, the cell seeding densities for the different cell lines were as follows: SNB19V, SNB19M: 650 cells/well; U373V, U373M: 650 cells/well; SNB19VR, U373VR: 650 cells/well; HCT116, DLD-1, SKMEL-28, MRC-5, MCF-7: 400 cells/well.
(§8) The two peripheral lanes of each plate were used as blank wells (cell free) and filled with 200 μL of medium in order to minimise medium evaporation from the plate. A separate time zero (T0) plate was set up alongside other plates. Serial dilutions in tissue culture medium of a 100 mM stock of test compound were prepared immediately before each assay to ten times the final concentrations required. 20 μL was added to each well (200 μL total media per well) to achieve final concentrations of 0.5 μM, 1 μM, 5 μM, 10 μM, 50 μM, 100 μM, 500 μM, and 1000 μM. A minimum of four wells received the same test compound concentration. To control wells, including those in the T0 plate, 20 μL of medium was added. […]
For orientation: Formazan colour is commonly taken as a measure of viable cells.

Experiment [2] deals with U373M. Nature of the experiment: MTT assay for 7-day toxicity, U373M glioma cells (stably transfected with MGMT, MGMT+). As to conditions: 7 day MTT assay, glioma line U373M. On the procedure: as §1, §2, §3, §4, §5, §6, §7, §8
In experiment [3] the test system is SNB19M. Nature of the experiment: MTT assay for 7-day toxicity, SNB19M glioma cells (stably transfected with MGMT, MGMT+). As to conditions: 7 day MTT assay, glioma line SNB19M. On the procedure:
as §1, §2, §3, §4, §5, §6, §7, §8

For experiment [4], the system named is SNB19V. Nature of the experiment: MTT assay for 7-day toxicity, SNB19V glioma cells (vector control, MGMT-). The note with it: Glioma cell, 168 h, 7 day MTT assay, glioma line SNB19V. The protocol:
as §1, §2, §3, §4, §5, §6, §7, §8

The structures appear in SMILES notation.

For orientation: GI50 means the concentration giving 50% growth inhibition. As for `Cn1nnc2c(-c3nc(-c4ccsc4)cs3)ncn2c1=O` [WW-012, 3-Methyl-8-(4-(thiophen-3-yl)thiazol-2-yl)imidazo[5,1-d][1,2,3,5]tetrazin-4(3H)-one], the GI50 was < 75 µM in experiment [1] (Glioma cell, 168 h); < 60 µM in experiment [2] (Glioma cell, 168 h); < 70 µM in experiment [3] (Glioma cell, 168 h); < 45 µM in experiment [4].

As to `C#CCn1nnc2c(-c3nc(-c4cccc(Cl)c4)cs3)ncn2c1=O` [WW-023, 8-(4-(3-Chlorophenyl)thiazol-2-yl)-3-(prop-2-ynyl)imidazo[5,1-d][1,2,3,5]tetrazin-4(3H)-one], the 50% growth inhibitory concentration (GI50) in experiment [1] (Glioma cell, 168 h) is < 75 µM; in experiment [2] (Glioma cell, 168 h), < 60 µM; in experiment [3] (Glioma cell, 168 h), < 70 µM; in experiment [4] it was < 45 µM.

In the case of `C#CCn1nnc2c(-c3nc(-c4ccsc4)cs3)ncn2c1=O` [WW-024, 3-(Prop-2-ynyl)-8-(4-(thiophen-3-yl)thiazol-2-yl)imidazo[5,1-d][1,2,3,5]tetrazin-4(3H)-one], the GI50 in experiment [1] (Glioma cell, 168 h) was < 75 µM; in experiment [2] (Glioma cell, 168 h), < 60 µM; in experiment [3] (Glioma cell, 168 h) it was < 70 µM; in experiment [4], < 45 µM.

As for `C#CCn1nnc2c(-c3nc(-c4ccc(S(C)(=O)=O)cc4)cs3)ncn2c1=O` [WW-025], the GI50 in experiment [1] (Glioma cell, 168 h) was < 75 µM; in experiment [2] (Glioma cell, 168 h) it was < 60 µM; in experiment [3] (Glioma cell, 168 h), < 70 µM; in experiment [4], < 45 µM.

As for `C#CCn1nnc2c(-c3nc(-c4ccc5c(c4)OCO5)cs3)ncn2c1=O` [WW-026], the GI50 in experiment [1] (Glioma cell, 168 h) was < 75 µM; in experiment [2] (Glioma cell, 168 h), < 60 µM; in experiment [3] (Glioma cell, 168 h) it was < 70 µM; in experiment [4], < 45 µM.

With `C#CCn1nnc2c(-c3nc(-c4nccs4)cs3)ncn2c1=O` [WW-028, 8-(2,4′-Bithiazol-2′-yl)-3-(prop-2-ynyl)imidazo[5,1-d][1,2,3,5]tetrazin-4(3H)-one], the GI50 in experiment [1] is 50 µM; in experiment [1] (Glioma cell, 168 h), < 75 µM; in experiment [2], 35.1 µM; in experiment [2] (Glioma cell, 168 h), < 60 µM; in experiment [3], 56.5 µM; in experiment [3] (Glioma cell, 168 h) it was < 70 µM. In addition, in experiment [4], the concentration for 50% growth inhibition (GI50) came to 54 µM.

`C#CCn1nnc2c(-c3nc(-c4cccs4)cs3)ncn2c1=O` [WW-029, 3-(Prop-2-ynyl)-8-(4-(thiophen-2-yl)thiazol-2-yl)imidazo[5,1-d][1,2,3,5]tetrazin-4(3H)-one]: the 50% growth inhibitory concentration (GI50) in experiment [1] (Glioma cell, 168 h) is < 75 µM; in experiment [2] (Glioma cell, 168 h) it was < 60 µM; in experiment [3] (Glioma cell, 168 h), < 70 µM; in experiment [4], < 45 µM.

As for `C[S+]([O-])Cn1nnc2c(-c3nc(-c4ccccc4)cs3)ncn2c1=O` (centres unmarked) [WW-031, 3-(methylsulfinylmethyl)-8-(4-phenylthiazol-2-yl)imidazo[5,1-d][1,2,3,5]tetrazin-4(3H)-one], the GI50 in experiment [1] (Glioma cell, 168 h) was < 75 µM; in experiment [2] (Glioma cell, 168 h) it was < 60 µM; in experiment [3] (Glioma cell, 168 h) it was < 70 µM; in experiment [4], < 45 µM.

As to `C[S+]([O-])Cn1nnc2c(-c3nc(-c4ccsc4)cs3)ncn2c1=O` (centres unmarked) [WW-033, 3-(methylsulfinylmethyl)-8-(4-(thiophen-3-yl)thiazol-2-yl)imidazo[5,1-d][1,2,3,5]tetrazin-4(3H)-one], the GI50 in experiment [1] (Glioma cell, 168 h) was < 75 µM; in experiment [2] (Glioma cell, 168 h) it was < 60 µM; in experiment [3] (Glioma cell, 168 h), < 70 µM; in experiment [4], < 45 µM.

With `C[S+]([O-])Cn1nnc2c(-c3nc(-c4cccs4)cs3)ncn2c1=O` (centres unmarked) [WW-036, 3-(methylsulfinylmethyl)-8-(4-(thiophen-2-yl)thiazol-2-yl)imidazo[5,1-d][1,2,3,5]tetrazin-4(3H)-one], the GI50 is < 75 µM in experiment [1] (Glioma cell, 168 h); < 60 µM in experiment [2] (Glioma cell, 168 h); < 70 µM in experiment [3] (Glioma cell, 168 h); < 45 µM in experiment [4].

`Cn1nnc2c(-c3nc(-c4ccccc4)co3)ncn2c1=O` [WW-037, 3-Methyl-8-(4-phenyloxazol-2-yl)imidazo[5,1-d][1,2,3,5]tetrazin-4(3H)-one]: the GI50 in experiment [1] (Glioma cell, 168 h) was < 75 µM; in experiment [2] (Glioma cell, 168 h), < 60 µM; in experiment [3] (Glioma cell, 168 h), < 70 µM; in experiment [4] it was < 45 µM.

As to `Cn1nnc2c(-c3ncc(-c4ccccc4)o3)ncn2c1=O` [WW-038, 3-Methyl-8-(5-phenyloxazol-2-yl)imidazo[5,1-d][1,2,3,5]tetrazin-4(3H)-one], the 50% growth inhibitory concentration (GI50) in experiment [1] (Glioma cell, 168 h) was < 75 µM; in experiment [2] (Glioma cell, 168 h), < 60 µM; in experiment [3] (Glioma cell, 168 h), < 70 µM; in experiment [4] it was < 45 µM.

In the case of `C#CCn1nnc2c(-c3nnc(-c4ccccc4)o3)ncn2c1=O` [WW-042, 8-(5-Phenyl-1,3,4-oxadiazol-2-yl)-3-(prop-2-ynyl)imidazo[5,1-d][1,2,3,5]tetrazin-4(3H)-one], the GI50 in experiment [1] (Glioma cell, 168 h) was < 75 µM; in experiment [2] (Glioma cell, 168 h), < 60 µM; in experiment [3] (Glioma cell, 168 h), < 70 µM; in experiment [4], < 45 µM.

`Cn1nnc2c(-c3ncc[nH]3)ncn2c1=O` [WW-047, 8-(1H-Imidazol-2-yl)-3-methylimidazo[5,1-d][1,2,3,5]tetrazin-4(3H)-one]: the GI50 in experiment [1] (Glioma cell, 168 h) is < 75 µM; in experiment [2] (Glioma cell, 168 h), < 60 µM; in experiment [3] (Glioma cell, 168 h), < 70 µM; in experiment [4], < 45 µM.

Consider `Cn1nnc2c(-c3nc(-c4cccs4)c[nH]3)ncn2c1=O` [WW-048, 3-Methyl-8-(4-(thiophen-2-yl)-1H-imidazol-2-yl)imidazo[5,1-d][1,2,3,5]tetrazin-4(3H)-one], for which the GI50 in experiment [1] (Glioma cell, 168 h) was < 75 µM; in experiment [2] (Glioma cell, 168 h) it was < 60 µM; in experiment [3] (Glioma cell, 168 h) it was < 70 µM; in experiment [4] it was < 45 µM.

For `Cn1nnc2c(-c3nc(-c4ccccc4)c[nH]3)ncn2c1=O` [WW-049, 3-Methyl-8-(4-phenyl-1H-imidazol-2-yl)imidazo[5,1-d][1,2,3,5]tetrazin-4(3H)-one], the GI50 was < 75 µM in experiment [1] (Glioma cell, 168 h); < 60 µM in experiment [2] (Glioma cell, 168 h); < 70 µM in experiment [3] (Glioma cell, 168 h); < 45 µM in experiment [4].

Turning to `C#CCn1nnc2c(-c3nc(-c4ccccc4)c[nH]3)ncn2c1=O` [WW-050, 8-(4-Phenyl-1H-imidazol-2-yl)-3-(prop-2-ynyl)imidazo[5,1-d][1,2,3,5]tetrazin-4(3H)-one], the GI50 in experiment [1] (Glioma cell, 168 h) was < 75 µM; in experiment [2] (Glioma cell, 168 h), < 60 µM; in experiment [3] (Glioma cell, 168 h), < 70 µM; in experiment [4] it was < 45 µM.

With `Cn1cc(-c2ccccc2)nc1-c1ncn2c(=O)n(C)nnc12` [WW-051, 3-Methyl-8-(1-methyl-4-phenyl-1H-imidazol-2-yl)imidazo[5,1-d][1,2,3,5]tetrazin-4(3H)-one], the 50% growth inhibitory concentration (GI50) in experiment [1] (Glioma cell, 168 h) is < 75 µM; in experiment [2] (Glioma cell, 168 h), < 60 µM; in experiment [3] (Glioma cell, 168 h) it was < 70 µM; in experiment [4], < 45 µM.

Turning to `C#CCn1nnc2c(-c3nc(-c4ccccc4)cn3C)ncn2c1=O` [WW-052, 8-(1-Methyl-4-phenyl-1H-imidazol-2-yl)-3-(prop-2-ynyl)imidazo[5,1-d][1,2,3,5]tetrazin-4(3H)-one], the GI50 is < 75 µM in experiment [1] (Glioma cell, 168 h); < 60 µM in experiment [2] (Glioma cell, 168 h); < 70 µM in experiment [3] (Glioma cell, 168 h); < 45 µM in experiment [4].

Turning to `C#CCn1nnc2c(-c3nc4ccccc4o3)ncn2c1=O` [WW-055, 8-(Benzo[d]oxazol-2-yl)-3-(prop-2-ynyl)imidazo[5,1-d][1,2,3,5]tetrazin-4(3H)-one], the GI50 was < 75 µM in experiment [1] (Glioma cell, 168 h); < 60 µM in experiment [2] (Glioma cell, 168 h); < 70 µM in experiment [3] (Glioma cell, 168 h); < 45 µM in experiment [4].

The values above are taken from patent publication US9024018B2, “3-substituted-8-substituted-3H-imidazo[5,1-d][1,2,3,5]tetrazin-4-one compounds and their use” (Pharminox Limited, priority 2009, dated 2015).
